Data as given in ChEMBL document CHEMBL1799909, “Lithothamnin A, the first bastadin-like metabolite from the red alga Lithothamnion fragilissimum” (J Nat Prod, 2011).

Assays:
Type in all cases: functional, cell-based
[1] = system: SNB-19; experiment: Cytotoxicity against human SNB19 cells after 2 days by XTT assay; details: SNB-19, 48 h
[2] = Cytotoxicity against human LOX cells after 2 days by XTT assay; details: 48 h
[3] = system: OVCAR-3; experiment: Cytotoxicity against human OVCAR3 cells after 2 days by XTT assay; details: OVCAR-3, 48 h
[4] = system: COLO 205; experiment: Cytotoxicity against human COLO205 cells after 2 days by XTT assay; details: COLO 205, 48 h
[5] = system: MOLT-4; experiment: Cytotoxicity against human MOLT4 cells after 2 days by XTT assay; details: MOLT-4, 48 h

Structure (SMILES): O=C1NCCc2cc(Br)c(O)c(c2)Oc2cc(O)c(cc2Br)CCNC(=O)/C(=N/O)Cc2c(O)cc(Br)c(c2Br)Oc2cc(cc(Br)c2O)C/C1=N\O [LITHOTHAMNIN A]
- IC50 [1]: 7.6 µM
- IC50 [2]: 9.5 µM
- IC50 [3]: 7.6 µM
- IC50 [4]: 19 µM
- IC50 [5]: 19 µM
